Laboratory results as given in patent US11725000B2, “Apoptosis inhibitors” (National Institute of Biological Sciences, Beijing, priority 2017, dated 2023).
Where two headings read alike, the source gives them in different places.

Test system: U2OS_Bim cells
Assay: Apoptosis inhibition assay (Bim-induced apoptosis, cell viability by ATP level)
Type: cell-based
In short: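 Apoptosis was triggered by doxycycline (0.1 μg/mL) induction of Bim, one hour after compound addition to U2OS_Bim cells. Survival was measured after 24 h from cellular ATP (CellTiter-Glo), relative to DMSO, with zVAD at 20 μM as rescue control. Data are duplicate means, some estimated from preliminary results.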

[1] = U2OS_Bim cells, means of duplicates, numbering of Tables 4a/4b, read-out: EC50
[2] = U2OS_Bim cells, estimated (*Est.) / preliminary results, numbering of Tables 4a/4b, read-out: EC50
[3] = U2OS_Bim cells, estimated based on preliminary results, numbering of Tables 4a/4b, read-out: EC50

Row | SMILES | EC50 [1] [nM] | also measured
1 | CCCOc1cccc(Cn2cc(-c3cc(C(F)(F)F)nc([S+](C)[O-])n3)ccc2=O)c1 (centres unmarked) [Compound 114, 5-(2-(methylsulfinyl)-6-(trifluoromethyl)pyrimidin-4-yl)-1-(3-propoxybenzyl)pyridin-2 (11H)-one] | 1000 to 10000 | 
2 | COc1cccc(-c2cc(C(F)(F)F)nc(S(C)(=O)=O)n2)c1 [Compound 52] | < 100000 | 
3 | Cc1cc(-c2cc(F)c(=O)n(Cc3ccc4c(c3)OCO4)c2)nc(S(=O)(=O)CCC(OCc2ccccc2F)C2CCCCN2C)n1 (centres unmarked) [Compound 398] |  | EC50 [2]: 1 to 1000 nM
4 | Cc1cc(-c2cc(F)c(=O)n(Cc3ccc4c(c3)OCCO4)c2)nc(S(=O)(=O)CCC(OCc2ccccc2F)c2ccccc2)n1 (centres unmarked) [Compound 331, 1-((2,3-dihydrobenzo[b][1,4]dioxin-6-yl)methyl)-3-fluoro-5-(2-(3-(2-fluorobenzyloxy)-3-phenylpropylsulfonyl)-6-methylpyrimidin-4-yl)pyridin-2 (1H)-one] | 1 to 1000 | 
5 | COc1ccc(Cn2cc(-c3cc(-c4ccc[nH]4)nc([S+](C)[O-])n3)ccc2=O)cc1OC (centres unmarked) [Compound 205] |  | EC50 [3]: < 10000 nM
6 | CS(=O)(=O)c1nc(-c2ccc(=O)n(Cc3ccccc3)c2)cc(C(F)(F)F)n1 [Compound 103, 1-Benzyl-5-(2-(methylsulfonyl)-6-(trifluoromethyl)pyrimidin-4-yl)pyridin-2 (1H)-one] |  | EC50: 1000 to 10000 nM
7 | COc1ccc(Cn2cc(-c3nc([S+]([O-])CCC(OCc4ccccc4F)c4ccccc4)nc4sccc34)cc(F)c2=O)cc1F (centres unmarked) [Compound 301, 3-fluoro-1-(3-fluoro-4-methoxybenzyl)-5-(2-(3-(2-fluorobenzyloxy)-3-phenylpropylsulfinyl)thieno[2,3-d]pyrimidin-4-yl)pyridin-2 (1H)-one] | 1000 to 10000 | 
8 | CNc1ccc(Cn2cc(-c3cc(C(F)(F)F)nc([S+](C)[O-])n3)ccc2=O)cc1NC (centres unmarked) [Compound 233] |  | EC50 [3]: < 10000 nM
9 | CNC(=O)c1ccc(-c2cc(C(F)(F)F)nc(S(C)(=O)=O)n2)cc1 [Compound 68, N-methyl-4-(2-(methylsulfonyl)-6-(trifluoromethyl)pyrimidin-4-yl)benzamide] | 1000 to 20000 | 
10 | C[S+]([O-])c1nc(-c2ccn(Cc3cccc(Cl)c3)c2)cc(C(F)(F)F)n1 (centres unmarked) [Compound 94, 4-(1-(3-chlorobenzyl)-1H-pyrrol-3-yl)-2-(methylsulfinyl)-6-(trifluoromethyl)pyrimidine] | < 100000 | 
11 | CS(=O)(=O)c1nc(-c2cccc(F)c2)cc(C(F)(F)F)n1 [Compound 44, 4-(3-fluorophenyl)-2-(methylsulfonyl)-6-(trifluoromethyl)pyrimidine] | 1000 to 10000 | 
12 | COCCOCCS(=O)(=O)c1nc(-c2ccc(=O)n(Cc3ccc(OC)c(OC)c3)c2)cc(C(F)(F)F)n1 [Compound 145] | 1 to 1000 | 
13 | COc1ccc(Cn2ccc(-c3cc(C(F)(F)F)nc([S+](C)[O-])n3)c2)cc1 (centres unmarked) [Compound 92, 4-(1-(4-methoxybenzyl)-1H-pyrrol-3-yl)-2-(methylsulfinyl)-6-(trifluoromethyl)pyrimidine] | < 100000 | 
14 | COc1ccc(Cn2cc(-c3cc(C(F)(F)F)nc([S+]([O-])CN(C)C)n3)ccc2=O)cc1OC (centres unmarked) [Compound 200] |  | EC50 [3]: < 10000 nM
15 | Cc1cc(-c2cc(F)c(=O)n(Cc3ccc4c(c3)OCO4)c2)nc(S(=O)(=O)CCC(OCc2ccccc2F)c2ccccc2)n1 (centres unmarked) [Compound 318, 1-(benzo[d][1,3]dioxol-5-ylmethyl)-3-fluoro-5-(2-(3-(2-fluorobenzyloxy)-3-phenylpropylsulfonyl)-6-methylpyrimidin-4-yl)pyridin-2 (1H)-one] | 1 to 1000 | 
16 | Cc1cc(-c2cc(F)c(=O)n(Cc3ccc4nnn(C)c4c3)c2)nc(S(=O)(=O)CCCC(=O)N(c2ccccc2)C(C)(C)C)n1 [Compound 374] |  | EC50 [2]: 1 to 1000 nM
17 | Cc1cc(-c2cc(F)c(=O)n(Cc3ccc(Cl)c(Cl)c3)c2)nc([S+]([O-])CCC(OCc2ccc(F)cc2F)c2ccccc2)n1 (centres unmarked) [Compound 315, 1-(3,4-dichlorobenzyl)-5-(2-(3-(2,4-difluorobenzyloxy)-3-phenylpropylsulfinyl)-6-methylpyrimidin-4-yl)-3-fluoropyridin-2 (1H)-one] | < 100000 | 
18 | C[S+]([O-])c1nc(-c2cccc(Oc3ccccc3)c2)cc(C(F)(F)F)n1 (centres unmarked) [Compound 74, 2-(methylsulfinyl)-4-(3-phenoxyphenyl)-6-(trifluoromethyl)pyrimidine] | < 100000 | 
19 | C[S+]([O-])c1nc(-c2ccc(C(=O)O)cc2)cc(C(F)(F)F)n1 (centres unmarked) [Compound 65, 4-(2-(methylsulfinyl)-6-(trifluoromethyl)pyrimidin-4-yl)benzoic acid] | < 100000 | 

Row | SMILES | EC50 [1] [nM] | also measured
20 | COc1ccc(Cn2cc(-c3cc(C(F)(F)F)nc([S+]([O-])CCC(OCc4ccccc4)c4ccccc4)n3)ccc2=O)cc1OC (centres unmarked) [Compound 280, 5-(2-((3-(benzyloxy)-3-phenylpropyl)sulfinyl)-6-(trifluoromethyl)pyrimidin-4-yl)-1-(3,4-dimethoxybenzyl)pyridin-2 (1H)-one] | 1 to 1000 | 
21 | COc1ccc(Cn2cc(-c3cc(CF)nc(S(=O)(=O)CCC(OCc4ccccc4)c4ccccc4)n3)ccc2=O)cc1OC (centres unmarked) [Compound 282, 5-(2-((3-(benzyloxy)-3-phenylpropyl)sulfonyl)-6-(fluoromethyl)pyrimidin-4-yl)-1-(3,4-dimethoxybenzyl)pyridin-2 (1H)-one] | 1 to 1000 | 
22 | CS(=O)(=O)c1nc(-c2ccn(Cc3ccc(Cl)cc3)c2)cc(C(F)(F)F)n1 [Compound 95, 4-(1-(4-chlorobenzyl)-1H-pyrrol-3-yl)-2-(methylsulfonyl)-6-(trifluoromethyl)pyrimidine] | < 100000 | 
23 | COc1ccc(Cn2cc(-c3nc(S(C)(=O)=O)nc(C(F)(F)F)c3Cl)ccc2=O)cc1OC [Compound 162, 5-(5-chloro-2-(methylsulfonyl)-6-(trifluoromethyl)pyrimidin-4-yl)-1-(3,4-dimethoxybenzyl)pyridin-2 (1H)-one] | 1 to 1000 | 
24 | Cc1cc(-c2cc(F)c(=O)n(Cc3ccc4c(c3)no[n+]4[O-])c2)nc(S(=O)(=O)CCC(OCc2ccccc2F)c2ccccc2)n1 (centres unmarked) [Compound 323] | 1 to 1000 | 
25 | COc1ccc(Cn2cc(-c3cc(C(F)F)nc(S(=O)(=O)c4cccc(N)c4)n3)ccc2=O)cc1OC [Compound 180, 5-(2-((3-aminophenyl)sulfonyl)-6-(difluoromethyl)pyrimidin-4-yl)-1-(3,4-dimethoxybenzyl)pyridin-2 (1H)-one] | 1 to 1000 | 
26 | COc1ccc(Cn2cc(-c3nc(S(=O)(=O)CCC(OCc4ccccc4)c4ccccc4)nc4ccccc34)ccc2=O)cc1OC (centres unmarked) [Compound 293, 5-(2-((3-(benzyloxy)-3-phenylpropyl)sulfonyl)quinazolin-4-yl)-1-(3,4-dimethoxybenzyl)pyridin-2 (1H)-one] | 1 to 1000 | 
27 | Cc1cccc(-c2cc(C(F)(F)F)nc(S(C)(=O)=O)n2)c1 [Compound 47, 2-(methylsulfonyl)-4-(m-tolyl)-6-(trifluoromethyl)pyrimidine] | 1000 to 10000 | 
28 | Cc1cc(-c2cc(F)c(=O)n(Cc3ccc4scnc4c3)c2)nc(S(=O)(=O)CCC(OCc2ccccc2F)c2ccccc2)n1 (centres unmarked) [Compound 326, 1-(benzo[d]thiazol-5-ylmethyl)-3-fluoro-5-(2-(3-(2-fluorobenzyloxy)-3-phenylpropylsulfonyl)-6-methylpyrimidin-4-yl)pyridin-2 (1H)-one] | 1 to 1000 | 
29 | COc1ccc(Cn2cc(-c3cc(C)nc(S(=O)(=O)CCC(OCc4ccccc4)c4ccccc4)n3)ccc2=O)cc1OC (centres unmarked) [Compound 295, 5-(2-(3-(benzyloxy)-3-phenylpropylsulfonyl)-6-methylpyrimidin-4-yl)-1-(3,4-dimethoxybenzyl)pyridin-2 (1H)-one] | 1 to 1000 | 
30 | Cc1cc(-c2cc(F)c(=O)n(Cc3ccc4c(c3)OCO4)c2)nc(S(=O)(=O)CCC(OCc2ccccc2F)c2cncs2)n1 (centres unmarked) [Compound 390] |  | EC50 [2]: 1 to 1000 nM
31 | Cc1cc(-c2cc(F)c(=O)n(Cc3ccc4cn(C)nc4c3)c2)nc(S(=O)(=O)CCC(OCc2ccccc2F)c2ccccc2)n1 (centres unmarked) [Compound 343] |  | EC50 [2]: 1 to 1000 nM
32 | CS(=O)(=O)c1nc(-c2ccc(=O)n(Cc3ccc(-n4cccn4)cc3)c2)cc(C(F)(F)F)n1 [Compound 132, 1-(4-(1H-pyrazol-1-yl)benzyl)-5-(2-(methylsulfonyl)-6-(trifluoromethyl)pyrimidin-4-yl)pyridin-2 (1H)-one] | 1 to 1000 | 
33 | COc1cn(Cn2cc(-c3cc(C(F)(F)F)nc(S(C)(=O)=O)n3)ccc2=O)cc1OC [Compound 258] |  | EC50 [3]: < 10000 nM
34 | C[S+]([O-])c1nc(-c2ccn(Cc3ccc(Cl)cc3)c2)cc(C(F)(F)F)n1 (centres unmarked) [Compound 96, 4-(1-(4-chlorobenzyl)-1H-pyrrol-3-yl)-2-(methylsulfinyl)-6-(trifluoromethyl)pyrimidine] | < 100000 | 
35 | COc1ccc(Cn2cc(-c3nc(S(=O)(=O)CCC(OCc4ccccc4F)c4ccccc4)nc4sccc34)cc(F)c2=O)cc1F (centres unmarked) [Compound 302, 3-fluoro-1-(3-fluoro-4-methoxybenzyl)-5-(2-(3-(2-fluorobenzyloxy)-3-phenylpropylsulfonyl)thieno[2,3-d]pyrimidin-4-yl)pyridin-2 (1H)-one] | 1 to 1000 | 
36 | COc1ccc(Cn2cc(-c3cc(-c4ccccc4F)nc(S(=O)(=O)CCC(OCc4ccccc4)c4ccccc4)n3)ccc2=O)cc1OC (centres unmarked) [Compound 298, 5-(2-((3-(benzyloxy)-3-phenylpropyl)sulfonyl)-6-(2-fluorophenyl)pyrimidin-4-yl)-1-(3,4-dimethoxybenzyl)pyridin-2 (1H)-one] | < 100000 | 
37 | Cc1cc(-c2cc(F)c(=O)n(Cc3ccc4c(c3)OCO4)c2)nc(S(=O)(=O)CCC(OCc2cncs2)c2ccccc2)n1 (centres unmarked) [Compound 406] |  | EC50 [2]: 1 to 1000 nM
38 | COc1ccc(Cn2cc(-c3cc(CF)nc([S+](C)[O-])n3)ccc2=O)cc1OC (centres unmarked) [Compound 203, 1-(3,4-dimethoxybenzyl)-5-(6-(fluoromethyl)-2-(methylsulfinyl)pyrimidin-4-yl)pyridin-2 (1H)-one] |  | EC50 [3]: < 10000 nM
